Reference: PubChem BioAssay AID248 (DTP/NCI, 2004)
Several values for one entry are separate records, joined by “and”; a condition that tells them apart may be missing. Equal values may be shown once. Toxic doses and inconclusive results are not listed. No stated cut-off is given here; in the data, active means T/C of 150% or more; inactive means T/C below 125%.

Tested on: L1210 leukemia ip in BDF1 mice, survival T/C
Experiment: NCI In Vivo Anticancer Drug Screen. Data for tumor model L1210 Leukemia (intraperitoneal) in B6D2F1 (BDF1) mice
Conditions: endpoint: mean survival time, higher = longer survival
Method in brief: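 Transplanted-tumor mice were given test agent; controls received vehicle only. Survival readings from the two groups were divided (treated over control).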

[1] = dose: 25.0 mg/kg/injection, schedule: Q04DX002 (ip), vehicle: saline with Tween-80
[2] = dose: 50.0 mg/kg/injection, schedule: Q04DX002 (ip), vehicle: saline with Tween-80
[3] = dose: 100.0 mg/kg/injection, schedule: Q04DX002 (ip), vehicle: saline with Tween-80
[4] = dose: 100.0 mg/kg/injection, schedule: Q01DX001 (ip), vehicle: saline
[5] = dose: 200.0 mg/kg/injection, schedule: Q01DX001 (ip), vehicle: saline
[6] = dose: 400.0 mg/kg/injection, schedule: Q01DX001 (ip), vehicle: saline
[7] = dose: 50.0 mg/kg/injection, schedule: Q01DX009 (ip), vehicle: saline
[8] = dose: 100.0 mg/kg/injection, schedule: Q01DX009 (ip), vehicle: saline
[9] = dose: 200.0 mg/kg/injection, schedule: Q01DX009 (ip), vehicle: saline
[10] = dose: 100.0 mg/kg/injection, schedule: Q01DX001 (ip), vehicle: carboxymethylcellulose (CMC)
[11] = dose: 200.0 mg/kg/injection, schedule: Q01DX001 (ip), vehicle: carboxymethylcellulose (CMC)
[12] = dose: 100.0 mg/kg/injection, schedule: Q01DX001 (ip), vehicle: Klucel (hydroxypropylcellulose) (HPC)
[13] = dose: 200.0 mg/kg/injection, schedule: Q01DX001 (ip), vehicle: Klucel (hydroxypropylcellulose) (HPC)
[14] = dose: 400.0 mg/kg/injection, schedule: Q01DX001 (ip), vehicle: Klucel (hydroxypropylcellulose) (HPC)
[15] = dose: 100.0 mg/kg/injection, schedule: Q04DX003 (ip), vehicle: saline with Tween-80
[16] = dose: 200.0 mg/kg/injection, schedule: Q04DX003 (ip), vehicle: saline with Tween-80
[17] = dose: 400.0 mg/kg/injection, schedule: Q04DX003 (ip), vehicle: saline with Tween-80
[18] = dose: 100.0 mg/kg/injection, schedule: Q04DX003 (ip), vehicle: Klucel (hydroxypropylcellulose) (HPC)
[19] = dose: 200.0 mg/kg/injection, schedule: Q04DX003 (ip), vehicle: Klucel (hydroxypropylcellulose) (HPC)
[20] = dose: 100.0 mg/kg/injection, schedule: Q01DX009 (ip), vehicle: Klucel (hydroxypropylcellulose) (HPC)
[21] = dose: 200.0 mg/kg/injection, schedule: Q01DX009 (ip), vehicle: Klucel (hydroxypropylcellulose) (HPC)
[22] = dose: 400.0 mg/kg/injection, schedule: Q01DX009 (ip), vehicle: Klucel (hydroxypropylcellulose) (HPC)
[23] = dose: 400.0 mg/kg/injection, schedule: Q04DX003 (ip), vehicle: Klucel (hydroxypropylcellulose) (HPC)
[24] = dose: 100.0 mg/kg/injection, schedule: Q01DX009 (ip), vehicle: saline with Tween-80
[25] = dose: 200.0 mg/kg/injection, schedule: Q01DX009 (ip), vehicle: saline with Tween-80
[26] = dose: 400.0 mg/kg/injection, schedule: Q01DX009 (ip), vehicle: saline with Tween-80

Measured: T/C

CCCCSP(=O)(N1CCCCC1)N1CCCCC1
inactive: [1] 97 % of control | [2] 97 % of control | [3] 92 % of control and 94 % of control

Brc1ccc(S/C=C/c2ccccc2)cc1
inactive: [4] 112 % of control | [5] 102 % of control | [6] 101 % of control

O=C(c1cc(Cl)cc(Cl)c1)N1CC1
inactive: dose: 25.0 mg/kg/injection, schedule: Q01DX009 (ip), vehicle: saline 100 % of control | [7] 91 % of control | [8] 90 % of control | [9] 100 % of control | dose: 400.0 mg/kg/injection, schedule: Q01DX009 (ip), vehicle: saline 96 % of control

Cc1ccc(S(=O)(=O)Nc2cc(C)ccc2C)cc1
inactive: dose: 50.0 mg/kg/injection, schedule: Q01DX001 (ip), vehicle: carboxymethylcellulose (CMC) 93 % of control | [10] 95 % of control | [11] 104 % of control | dose: 400.0 mg/kg/injection, schedule: Q01DX001 (ip), vehicle: carboxymethylcellulose (CMC) 88 % of control

Cc1cccc(/C=C2/SC(=S)N(c3ccccc3)C2=O)c1
inactive: [4] 100 % of control | [5] 98 % of control | [6] 105 % of control

CN(C)CCC(N)c1cccc2ccccc12 (stereo unspecified)
inactive: [1] 91 % of control | [2] 116 % of control | [3] 98 % of control

CCCCN(CCCC)CC(O)c1cc(-c2ccc(Cl)c(Cl)c2)nc2c(Cl)cc(Cl)cc12 (stereo unspecified)
inactive: [4] 103 % of control | [5] 94 % of control | [6] 94 % of control

CCOC(=O)c1ccc(Cn2c(C)cc(=O)n(Cc3ccc(C(=O)OCC)cc3)c2=O)cc1
inactive: [12] 102 % of control | [13] 94 % of control | [14] 91 % of control

COC(=O)C1=C(N)CCc2ccccc21
inactive: [15] 97 % of control | [16] 103 % of control | [17] 101 % of control

CCCCCCCCCCCCSC(=O)CCC(=O)O
inactive: dose: 50.0 mg/kg/injection, schedule: Q01DX009 (ip), vehicle: other 102 % of control | dose: 100.0 mg/kg/injection, schedule: Q01DX009 (ip), vehicle: other 108 % of control | [18] 97 % of control | dose: 200.0 mg/kg/injection, schedule: Q01DX009 (ip), vehicle: other 97 % of control | [19] 103 % of control

ClCc1nc2nc(Cl)c(Cl)nc2[nH]1
inactive: [7] 88 % of control | [8] 102 % of control | dose: 100.0 mg/kg/injection, schedule: Q04DX003 (ip), vehicle: saline 101 % of control | [9] 102 % of control | dose: 200.0 mg/kg/injection, schedule: Q04DX003 (ip), vehicle: saline 101 % of control | dose: 400.0 mg/kg/injection, schedule: Q04DX003 (ip), vehicle: saline 98 % of control

Cc1ccc(S(=O)(=O)NC(CCl)=NCc2ccccc2)cc1
inactive: dose: 100.0 mg/kg/injection, schedule: Q04DX002 (ip), vehicle: Klucel (hydroxypropylcellulose) (HPC) 96 % of control | dose: 200.0 mg/kg/injection, schedule: Q04DX002 (ip), vehicle: Klucel (hydroxypropylcellulose) (HPC) 100 % of control | dose: 400.0 mg/kg/injection, schedule: Q04DX002 (ip), vehicle: Klucel (hydroxypropylcellulose) (HPC) 114 % of control

CCC(=O)Nc1ccc(F)cc1
inactive: [12] 105 % of control | [20] 99 % of control | [18] 94 % of control | [13] 99 % of control | [21] 113 % of control | [19] 94 % of control | [14] 93 % of control | [22] 120 % of control | [23] 105 % of control

Brc1ccc(-c2nc3ccccc3[nH]2)cc1
inactive: [24] 93 % of control | [15] 101 % of control | [25] 93 % of control | [16] 104 % of control | [26] 93 % of control | [17] 101 % of control

CCCCC1CN2CCc3cc(OC)c(OC)cc3C2CC1=O (stereo unspecified)
inactive: dose: 50.0 mg/kg/injection, schedule: Q01DX009 (ip), vehicle: Klucel (hydroxypropylcellulose) (HPC) 96 % of control and 97 % of control | [20] 89 % of control and 103 % of control | [21] 94 % of control and 96 % of control | [22] 97 % of control

Cc1cnc(C)c(OCCN2CC2)n1
inactive: [4] 93 % of control

CS(=O)(=O)Nc1ccc(NS(C)(=O)=O)c(SCc2ccccc2)c1
inactive: [12] 95 % of control | [18] 96 % of control | [13] 98 % of control | [19] 89 % of control | [14] 95 % of control | [23] 102 % of control

COC(=O)C(C)C(=O)OC
inactive: dose: 100.0 mg/kg/injection, schedule: Q01DX009 (ip), vehicle: acetone 93 % of control | dose: 100.0 mg/kg/injection, schedule: Q04DX003 (ip), vehicle: acetone 107 % of control | dose: 200.0 mg/kg/injection, schedule: Q01DX009 (ip), vehicle: acetone 97 % of control | dose: 200.0 mg/kg/injection, schedule: Q04DX003 (ip), vehicle: acetone 97 % of control | dose: 400.0 mg/kg/injection, schedule: Q01DX009 (ip), vehicle: acetone 93 % of control | dose: 400.0 mg/kg/injection, schedule: Q04DX003 (ip), vehicle: acetone 94 % of control

CSc1ccccc1C[P+](c1ccccc1)(c1ccccc1)c1ccccc1
inactive: dose: 1.56 mg/kg/injection, schedule: Q01DX009 (ip), vehicle: saline with Tween-80 102 % of control | dose: 3.13 mg/kg/injection, schedule: Q01DX009 (ip), vehicle: saline with Tween-80 103 % of control | dose: 6.25 mg/kg/injection, schedule: Q01DX009 (ip), vehicle: saline with Tween-80 105 % of control

O=C(O)c1cc2cc(Cl)ccc2oc1=O
inactive: [10] 92 % of control | [11] 92 % of control

COc1ccc(C(=O)c2ccc(C)cc2)cc1
inactive: [20] 102 % of control | [18] 95 % of control | [21] 105 % of control | [19] 101 % of control | [22] 96 % of control | [23] 102 % of control

O=C1NC(c2ccc(Cl)cc2)N2C(=O)NC(c3ccc(Cl)cc3)N12 (stereo unspecified)
inactive: [2] 97 % of control | [3] 94 % of control | dose: 200.0 mg/kg/injection, schedule: Q04DX002 (ip), vehicle: saline with Tween-80 97 % of control

N#CC(CC(=O)OCc1ccccc1)NC(=O)OCc1ccccc1 (stereo unspecified)
inactive: [24] 92 % of control | [25] 89 % of control | [26] 97 % of control

O=C(SCCSC(=O)c1ccccc1)c1ccccc1
inactive: dose: 75.0 mg/kg/injection, schedule: Q04DX003 (ip), vehicle: other 98 % of control | dose: 150.0 mg/kg/injection, schedule: Q04DX003 (ip), vehicle: other 106 % of control | dose: 300.0 mg/kg/injection, schedule: Q04DX003 (ip), vehicle: other 112 % of control

C=CCNC(=S)NNC(=O)c1ccncc1
inactive: [20] 107 % of control | [21] 108 % of control | [22] 104 % of control

Nc1ccc(S(=O)(=O)Nc2ccc(Nc3c4ccccc4nc4ccccc34)cc2)cc1
inactive: dose: 3.0 mg/kg/injection, schedule: Q01DX009 (ip), vehicle: saline with Tween-80 122 % of control | dose: 6.0 mg/kg/injection, schedule: Q01DX009 (ip), vehicle: saline with Tween-80 120 % of control

Cc1nc(N)sc1N=Nc1ccccc1Br
inactive: dose: 75.0 mg/kg/injection, schedule: Q01DX001 (ip), vehicle: saline 103 % of control | dose: 150.0 mg/kg/injection, schedule: Q01DX001 (ip), vehicle: saline 108 % of control

O=C(O)c1ccccc1Nc1ccccc1
inactive: [12] 102 % of control | [13] 102 % of control | [14] 97 % of control
